We go through three compounds from article PMC8422859, “A Novel Oral Arginase 1/2 Inhibitor Enhances the Antitumor Effect of PD-1 Inhibition in Murine Experimental Gliomas by Altering the Immunosuppressive Environment” (Frontiers in Oncology, 2021).

The target of one experiment is T1, recombinant human ARG2 (Homo sapiens, UniProt P78540).
T1 construct: made in house; host or cells: E. coli
T1 sequence (P78540 23-354): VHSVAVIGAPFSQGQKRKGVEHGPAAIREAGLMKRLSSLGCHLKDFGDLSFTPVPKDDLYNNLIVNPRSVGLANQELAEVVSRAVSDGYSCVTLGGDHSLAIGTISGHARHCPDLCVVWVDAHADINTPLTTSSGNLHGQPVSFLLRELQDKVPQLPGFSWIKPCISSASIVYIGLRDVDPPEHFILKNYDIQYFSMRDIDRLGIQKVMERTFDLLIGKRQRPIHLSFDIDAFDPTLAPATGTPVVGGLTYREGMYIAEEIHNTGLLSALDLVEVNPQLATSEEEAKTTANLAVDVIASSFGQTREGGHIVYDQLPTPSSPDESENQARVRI
In words: Recombinant arginase activity assay, hARG2. The class given is biochemical. To be noted: 1 h at 37°C, pH 7.4, 10 mM L-arginine, urea detection; read-out: Inhibition of recombinant hARG2: IC50. As for the experimental part: (§1) The inhibitory activity towards hARG1 and hARG2 enzymes was assessed using recombinant enzymes biosynthesized using a prokaryotic expression system (E. coli) and purified by fast protein liquid chromatography (FPLC). Briefly, recombinant enzymes were incubated with the tested compounds for 1 h at 37°C in the reaction buffer (100 mM sodium phosphate buffer, 130 mM NaCl, 1 mg/mL BSA, pH 7.4) containing substrate (10 mM L-arginine hydrochloride) and cofactor (200 µM MnCl2). The assay is based on the detection of urea, which is generated during the conversion of L-arginine into L-ornithine catalyzed by arginases. To visualize the product, we adding a mixture of reagent A (4 mM oPA, 50 mM boric acid, 1 M sulfuric acid, 0.03% Brij-35) and reagent B (4 mM NED, 50 mM boric acid, 1 M sulfuric acid, 0.03% Brij-35) in equal proportions. The absorbance was measured at 515 nm. The urea production in the absence of any tested compound was considered as maximal enzyme activity. The absorbance in the absence of arginase (background) was considered as zero activity. Two reference compounds OAT-81 (ABH, no. 222638-65-5) and OAT-90 (2-amino-6-borono-2-(2-(3-(2,4-dichlorophenyl)propyloamino)ethyl) hexanoic acid, and two novel inhibitors OAT-1617 and OAT-1746 (the last three synthesized at OncoArendi Therapeutics) were tested. Normalized values were analyzed using GraphPad Prism 7.0 software and the IC50 values were determined.

Another experiment concerns the target T2, recombinant human ARG1 (Homo sapiens, UniProt P05089).
T2 construct: made in house; host or cells: E. coli
T2 sequence (P05089 1-322): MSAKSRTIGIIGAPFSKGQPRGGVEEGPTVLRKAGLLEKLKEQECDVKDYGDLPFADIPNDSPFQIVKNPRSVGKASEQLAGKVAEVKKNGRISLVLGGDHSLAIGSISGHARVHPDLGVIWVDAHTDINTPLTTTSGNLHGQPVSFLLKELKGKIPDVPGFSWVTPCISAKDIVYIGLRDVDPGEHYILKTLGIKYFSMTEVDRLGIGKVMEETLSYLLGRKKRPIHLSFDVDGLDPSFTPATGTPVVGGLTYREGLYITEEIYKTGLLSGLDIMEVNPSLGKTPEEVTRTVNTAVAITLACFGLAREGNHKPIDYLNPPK
Description: Recombinant arginase activity assay, hARG1. To be noted: 1 h at 37°C, pH 7.4, 10 mM L-arginine, urea detection; read-out: Inhibition of recombinant hARG1: IC50. The class given is biochemical. As for the experimental part:
as §1

The next experiment relates to LN18 glioma cells. Description: Matrigel invasion assay, LN18 co-cultured with BV2 microglia. The conditions noted are these: 11 µM, co-culture with BV2, 18 h. The format is cell-based, human. The method, then: BV2 cells were plated onto a 24-well plate at the density of 4×10^4. After 24 h, the invasion assay was performed with tissue culture inserts (6.5 mm Transwell® with 8.0 µm Pore Polycarbonate Membrane Insert, Corning, NY, USA) coated with the Growth Factor Reduced Matrigel™ Matrix (BD Biosciences, San Diego. CA, USA). The Matrigel™ Matrix (50 µL of 1 mg/mL stock solution diluted in fresh DMEM) was dried under sterile conditions (37°C) for 5–6 h. The medium in BV2 cultures was replaced with fresh one 1 h before seeding glioblastoma cells onto the inserts, then LN18 and U87 glioblastoma cells were seeded at 2×10^4/insert on Matrigel-covered membranes in a serum-reduced medium (2% FBS). Untreated glioblastoma cells co-cultured with or without BV2 cells served as positive and negative controls, respectively. Cells were treated with the arginase-1 inhibitors OAT-90, OAT-1617 and OAT-1746 solved in PBS. The cultures were kept in incubator at 37°C with humidified air containing 5% CO2. […] The membranes from Transwell® inserts were cut out and images were acquired using a fluorescence microscope (Leica DM4000B, 10x lens) from the 5 independent fields (bottom; top; left; right side and the middle). Numbers of invading cells were counted using the ImageJ software (NIH, Bethesda, MD, USA). […]

For another experiment, the system named is U87-MG glioma cells. In words: Matrigel invasion assay, U87-MG co-cultured with BV2 microglia. The class given is cell-based, human. As for the experimental part:
BV2 cells were plated onto a 24-well plate at the density of 4×10^4. After 24 h, the invasion assay was performed with tissue culture inserts (6.5 mm Transwell® with 8.0 µm Pore Polycarbonate Membrane Insert, Corning, NY, USA) coated with the Growth Factor Reduced Matrigel™ Matrix (BD Biosciences, San Diego. CA, USA). The Matrigel™ Matrix (50 µL of 1 mg/mL stock solution diluted in fresh DMEM) was dried under sterile conditions (37°C) for 5–6 h. The medium in BV2 cultures was replaced with fresh one 1 h before seeding glioblastoma cells onto the inserts, then LN18 and U87 glioblastoma cells were seeded at 2×10^4/insert on Matrigel-covered membranes in a serum-reduced medium (2% FBS). Untreated glioblastoma cells co-cultured with or without BV2 cells served as positive and negative controls, respectively. Cells were treated with the arginase-1 inhibitors OAT-90, OAT-1617 and OAT-1746 solved in PBS. The cultures were kept in incubator at 37°C with humidified air containing 5% CO2. After 18 h cells were fixed in ice-cold methanol and cell nuclei stained with DAPI (4′,6-Diamidino-2-Phenylindole; 1 µg/mL, Sigma). The membranes from Transwell® inserts were cut out and images were acquired using a fluorescence microscope (Leica DM4000B, 10x lens) from the 5 independent fields (bottom; top; left; right side and the middle). Numbers of invading cells were counted using the ImageJ software (NIH, Bethesda, MD, USA). All experiments were performed three times, in duplicates.

In another experiment the test system is T cell proliferation. More on the design: method as in PMID 29254508. The conditions noted are these: cited from earlier work.
Experiment [1] has as its system CT26, LLC, B16, and 4T1 tumors. More on the design: method as in PMID 29254508. To be noted: B16, 4T1; cited from earlier work.

As for `N[C@@H](CCCCB(O)O)C(=O)O` [Ref.comp. 1, ABH], the IC50 on recombinant human ARG2 was determined as 2670 nM; on recombinant human ARG1 it was 1080 nM.

Take `NC(CCCCB(O)O)(CCNCCCc1ccc(Cl)cc1Cl)C(=O)O` (stereo not drawn) [OAT-90, 2-amino-6-borono-2-(2-(3-(2,4-dichlorophenyl)propyloamino)ethyl) hexanoic acid, reference compound]: the IC50 amounted to 796 nM on recombinant human ARG2 and 151 nM at recombinant human ARG1. The “microglia-induced invasion of LN18 cells” value with LN18 glioma cells was “effectively reduced glioma invasion”. Also, in the experiment with U87-MG glioma cells (11 µM, co-culture with BV2, 18 h), the “microglia-induced invasion of U87-MG cells” value is given as “effectively reduced glioma invasion”. Further, the “concentration dependence of the inhibitory effect on glioma invasion” value in the experiment on U87-MG glioma cells (0.1 and 11 µM, U87-MG with BV2) is recorded as “this dependence was not observed”.

As for `C[C@H](N)C(=O)N1C[C@H](CCCB(O)O)[C@](N)(C(=O)O)C1` [CB-1158], the “myeloid cell-mediated suppression of T cell proliferation in vitro” value in the experiment with T cell proliferation was “blocked”. In addition, the “tumor growth in mouse models of non-CNS tumors” value in experiment [1] was “reduced tumor growth”.
